The values below are quoted from earlier work in patent US20220241275A1, “TARGETED TREATMENT OF CANCERS WITH DYSREGULATED FIBROBLAST GROWTH FACTOR RECEPTOR SIGNALING” (G1 Therapeutics, Inc., priority 2019, published 2022).

Like-named read-outs stand apart in the source and are kept apart here.

Among the targets are FGFR4 (Homo sapiens, UniProt P22455); FGFR1 (Homo sapiens, UniProt P11362); FGFR3 (Homo sapiens, UniProt P22607); FGFR2 (Homo sapiens, UniProt P21802).
The target in the next data set is VEGFR2 (Homo sapiens, UniProt P35968). The note with it: cell-free assays.
Sequence of VEGFR2 (P35968 20-1356, species assumed): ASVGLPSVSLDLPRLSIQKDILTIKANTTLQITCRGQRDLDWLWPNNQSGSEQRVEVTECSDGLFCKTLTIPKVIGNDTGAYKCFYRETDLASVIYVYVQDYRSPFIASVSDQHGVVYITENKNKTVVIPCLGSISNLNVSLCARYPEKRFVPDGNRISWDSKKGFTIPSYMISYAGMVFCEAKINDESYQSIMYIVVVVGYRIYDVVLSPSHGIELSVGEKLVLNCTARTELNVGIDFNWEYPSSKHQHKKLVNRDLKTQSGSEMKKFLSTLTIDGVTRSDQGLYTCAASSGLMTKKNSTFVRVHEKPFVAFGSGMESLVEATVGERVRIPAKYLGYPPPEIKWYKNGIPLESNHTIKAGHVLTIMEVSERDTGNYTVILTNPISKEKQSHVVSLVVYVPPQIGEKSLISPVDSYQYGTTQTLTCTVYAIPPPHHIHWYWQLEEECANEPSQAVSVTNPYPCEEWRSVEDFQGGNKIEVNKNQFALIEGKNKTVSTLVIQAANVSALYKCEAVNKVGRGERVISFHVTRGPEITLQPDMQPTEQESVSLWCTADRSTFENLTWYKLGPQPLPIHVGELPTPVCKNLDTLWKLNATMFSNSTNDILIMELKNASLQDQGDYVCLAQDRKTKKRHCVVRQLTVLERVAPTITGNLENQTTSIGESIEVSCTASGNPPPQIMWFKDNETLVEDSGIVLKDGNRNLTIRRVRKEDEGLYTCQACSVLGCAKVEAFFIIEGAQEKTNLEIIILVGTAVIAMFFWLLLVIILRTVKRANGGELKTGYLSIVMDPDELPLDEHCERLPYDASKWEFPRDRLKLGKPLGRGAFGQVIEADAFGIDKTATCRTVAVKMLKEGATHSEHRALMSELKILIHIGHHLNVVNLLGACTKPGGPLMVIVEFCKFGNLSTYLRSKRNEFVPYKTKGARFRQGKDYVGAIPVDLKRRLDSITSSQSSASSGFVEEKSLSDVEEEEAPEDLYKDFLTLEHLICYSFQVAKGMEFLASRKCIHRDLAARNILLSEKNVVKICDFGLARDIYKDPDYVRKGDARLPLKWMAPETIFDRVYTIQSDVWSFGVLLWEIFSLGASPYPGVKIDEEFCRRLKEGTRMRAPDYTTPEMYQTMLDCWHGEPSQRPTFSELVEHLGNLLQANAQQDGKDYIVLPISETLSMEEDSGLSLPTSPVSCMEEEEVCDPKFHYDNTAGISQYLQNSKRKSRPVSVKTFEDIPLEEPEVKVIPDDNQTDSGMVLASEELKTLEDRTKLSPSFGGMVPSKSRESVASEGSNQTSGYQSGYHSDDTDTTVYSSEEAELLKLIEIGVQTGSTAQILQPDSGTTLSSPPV
The subject of data set [1] is FGFR1-amplified squamous NSCLC and FGFR3-mutant urothelial cancer. The note with it: doses >=100 mg, phase I dose escalation trial.

Sequence of FGFR4 (P22455 22-802): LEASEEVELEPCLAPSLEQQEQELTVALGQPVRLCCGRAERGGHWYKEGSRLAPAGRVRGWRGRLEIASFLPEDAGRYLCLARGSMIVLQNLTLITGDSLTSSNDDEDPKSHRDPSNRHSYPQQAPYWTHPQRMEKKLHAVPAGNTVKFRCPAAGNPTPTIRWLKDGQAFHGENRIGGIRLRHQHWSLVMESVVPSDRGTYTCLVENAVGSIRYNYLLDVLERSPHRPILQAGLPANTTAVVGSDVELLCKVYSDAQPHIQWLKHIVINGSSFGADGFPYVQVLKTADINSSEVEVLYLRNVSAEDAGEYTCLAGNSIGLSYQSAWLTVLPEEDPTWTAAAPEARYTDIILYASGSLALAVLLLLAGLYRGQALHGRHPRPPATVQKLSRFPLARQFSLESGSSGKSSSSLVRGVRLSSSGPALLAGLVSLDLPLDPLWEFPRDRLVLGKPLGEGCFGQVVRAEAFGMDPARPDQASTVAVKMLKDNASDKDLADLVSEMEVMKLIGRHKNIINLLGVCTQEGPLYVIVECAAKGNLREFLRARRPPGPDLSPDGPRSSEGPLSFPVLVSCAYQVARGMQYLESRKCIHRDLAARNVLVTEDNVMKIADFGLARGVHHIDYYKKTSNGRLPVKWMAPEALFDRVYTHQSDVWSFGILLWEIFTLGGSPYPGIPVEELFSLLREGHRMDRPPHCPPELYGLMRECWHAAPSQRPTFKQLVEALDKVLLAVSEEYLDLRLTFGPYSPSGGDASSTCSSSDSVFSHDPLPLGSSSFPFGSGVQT
Sequence of FGFR2 (P21802 22-821): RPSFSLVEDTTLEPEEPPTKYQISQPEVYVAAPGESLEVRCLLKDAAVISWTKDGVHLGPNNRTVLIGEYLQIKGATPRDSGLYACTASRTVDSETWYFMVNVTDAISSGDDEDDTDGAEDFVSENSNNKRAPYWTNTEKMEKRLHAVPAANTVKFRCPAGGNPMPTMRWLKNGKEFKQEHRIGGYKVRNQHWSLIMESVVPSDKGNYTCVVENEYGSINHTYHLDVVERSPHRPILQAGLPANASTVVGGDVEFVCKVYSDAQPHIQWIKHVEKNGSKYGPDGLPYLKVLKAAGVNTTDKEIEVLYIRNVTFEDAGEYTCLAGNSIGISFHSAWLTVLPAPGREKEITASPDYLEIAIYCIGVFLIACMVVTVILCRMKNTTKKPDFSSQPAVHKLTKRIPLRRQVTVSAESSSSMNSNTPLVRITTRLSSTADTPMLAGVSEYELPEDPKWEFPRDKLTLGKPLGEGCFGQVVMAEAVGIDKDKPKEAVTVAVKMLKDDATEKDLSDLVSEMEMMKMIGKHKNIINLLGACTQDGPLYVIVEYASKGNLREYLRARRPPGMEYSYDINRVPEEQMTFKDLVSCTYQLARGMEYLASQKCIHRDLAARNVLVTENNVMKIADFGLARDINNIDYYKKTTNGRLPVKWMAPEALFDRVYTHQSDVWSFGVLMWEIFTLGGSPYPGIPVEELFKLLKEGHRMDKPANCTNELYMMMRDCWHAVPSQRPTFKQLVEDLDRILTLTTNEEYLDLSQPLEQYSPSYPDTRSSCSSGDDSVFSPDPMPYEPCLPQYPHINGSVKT
Sequence of FGFR3 (P22607 23-806): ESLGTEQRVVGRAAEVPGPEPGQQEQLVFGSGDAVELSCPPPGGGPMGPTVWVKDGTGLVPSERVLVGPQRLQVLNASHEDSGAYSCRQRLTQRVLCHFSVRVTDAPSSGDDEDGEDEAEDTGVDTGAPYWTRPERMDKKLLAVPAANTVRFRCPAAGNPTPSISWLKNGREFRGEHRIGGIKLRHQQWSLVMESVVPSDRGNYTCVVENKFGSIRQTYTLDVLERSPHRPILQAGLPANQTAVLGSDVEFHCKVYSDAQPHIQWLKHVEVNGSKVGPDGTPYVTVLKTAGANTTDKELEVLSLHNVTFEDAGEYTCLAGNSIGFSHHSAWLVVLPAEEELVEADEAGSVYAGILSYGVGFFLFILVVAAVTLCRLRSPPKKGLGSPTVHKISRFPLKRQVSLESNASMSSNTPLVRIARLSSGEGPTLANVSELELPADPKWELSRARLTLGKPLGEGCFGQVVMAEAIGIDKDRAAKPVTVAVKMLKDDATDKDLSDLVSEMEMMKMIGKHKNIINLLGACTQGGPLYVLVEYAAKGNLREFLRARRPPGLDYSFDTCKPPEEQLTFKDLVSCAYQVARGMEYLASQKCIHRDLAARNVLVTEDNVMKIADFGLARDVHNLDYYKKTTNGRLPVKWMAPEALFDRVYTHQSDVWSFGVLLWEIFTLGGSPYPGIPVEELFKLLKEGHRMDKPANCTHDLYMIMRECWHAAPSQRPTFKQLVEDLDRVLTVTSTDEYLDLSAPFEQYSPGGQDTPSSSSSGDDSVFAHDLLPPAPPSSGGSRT
Sequence of FGFR1 (P11362 22-822): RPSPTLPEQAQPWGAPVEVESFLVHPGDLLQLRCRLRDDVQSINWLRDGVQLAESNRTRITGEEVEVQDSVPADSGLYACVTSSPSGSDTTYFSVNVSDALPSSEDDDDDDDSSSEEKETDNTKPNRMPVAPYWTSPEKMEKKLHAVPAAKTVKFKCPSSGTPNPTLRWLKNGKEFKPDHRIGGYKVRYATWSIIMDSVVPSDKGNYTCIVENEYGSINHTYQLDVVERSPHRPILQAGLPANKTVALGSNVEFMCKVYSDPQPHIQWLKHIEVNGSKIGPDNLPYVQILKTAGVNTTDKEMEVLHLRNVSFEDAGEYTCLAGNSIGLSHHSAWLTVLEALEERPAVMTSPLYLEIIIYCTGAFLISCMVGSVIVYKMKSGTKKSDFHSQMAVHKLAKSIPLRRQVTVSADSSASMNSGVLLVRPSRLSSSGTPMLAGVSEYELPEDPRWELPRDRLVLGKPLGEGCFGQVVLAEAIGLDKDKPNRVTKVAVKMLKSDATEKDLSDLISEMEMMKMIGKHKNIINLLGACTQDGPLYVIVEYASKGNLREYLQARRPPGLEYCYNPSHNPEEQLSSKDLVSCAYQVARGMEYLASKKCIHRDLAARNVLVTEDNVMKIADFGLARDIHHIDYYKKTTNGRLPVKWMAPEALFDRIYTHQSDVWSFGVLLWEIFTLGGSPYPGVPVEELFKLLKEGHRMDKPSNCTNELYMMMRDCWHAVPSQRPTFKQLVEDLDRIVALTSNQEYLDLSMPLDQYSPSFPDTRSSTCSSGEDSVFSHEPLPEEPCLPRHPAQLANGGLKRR

The IC50 is the midpoint of a concentration-inhibition curve. With `C=CC(=O)Nc1ccc(CN2C(=O)N(c3cc(OC)cc(OC)c3)Cc3cnc(Nc4ccc(N5CCN(C)CC5)cc4)nc32)cc1` [FIIN-2], the IC50 on FGFR4 (read-out: IC50 for FGFR4) is 45.3 nM; on FGFR1 it was 3.09 nM; at FGFR3 it was 27 nM; at FGFR2, 4.3 nM.
In the case of `CCN(CC)CCCCNc1ncc2cc(-c3cc(OC)cc(OC)c3)c(NC(=O)NC(C)(C)C)nc2n1` [PD173074], at VEGFR2, the IC50 was 100 to 200 nM.
Turning to `CNC(=O)c1cccc2cc(Oc3ccnc(NC(=O)c4ccc(N5CCN(CCO)CC5)cc4)c3)ccc12` [SOMCL-085], the concentration for half-maximal inhibition (IC50) at FGFR4 (read-out: IC50, FGFR4) was 320 nM.
On to `CCN1CCN(c2ccc(Nc3cc(N(C)C(=O)Nc4c(Cl)c(OC)cc(OC)c4Cl)ncn3)cc2)CC1` [infigratinib], for which, in data set [1], the confirmed partial responses result is given as “six”.
